Test results from patent US20240051936A1, “ISOINDOLINONE COMPOUNDS” (Monte Rosa Therapeutics, Inc., priority 2021, published 2024).
Like-named read-outs stand apart in the source and are kept apart here.

How the values were obtained:
[1] = molecular target: Full length wild-type cereblon CRBN (Homo sapiens (Human), UniProt Q96SW2); experiment: Fluorescence polarization (FP) assay, cereblon binding
Description: Compound activity was monitored in a fluorescence polarization (FP) homogeneous assay using 1-[5-({2-[2-(2-{[2-(2,6-dioxopiperidin-3-yl)-1,3-dioxo-2,3-dihydro-1H-isoindol-4-yl]oxy}acetamido)ethoxy]ethyl}carbamoyl)pentyl]-3,3-dimethyl-2-[(1E,3E)-5-[(2E)-1,3,3-trimethyl-5-sulfo-2,3-dihydro-1H-indol-2-ylidene]penta-1,3-dien-1-yl]-3H-indol-1-ium-5-sulfonate as a fluorescent probe. Unless otherwise stated, all reagents were purchased from Sigma Aldrich. Enzymatic reactions were conducted in Perkin-Elmer Black 384 well ProxiPlate Plus (catalogue no. 6008269) in 10 sL total volume. Full length wild-type cereblon CRBN (80.0 nM, 10 sL) was incubated in assay buffer containing 20 mM HEPES (pH 8.0), […], 0.5 mM TCEP and 0.05% Tween 20 in the presence or absence of compound (300 nL). Inhibitors were stored as 10 mM DMSO stocks in an inert environment (low humidity, dark, low oxygen, room temperature) using the Storage Pod System.
Compounds and DMSO were dispensed using the Echo E5XX (Labcyte Inc. USA) to give concentrations from 300 to 0.937 or 3000 to 9.3 nM in a 12 data point curve. […] Following incubation at room temperature for 30 min, the assay was initiated by dispensing the probe to a final concentration of 5 nM (2.5 nL of a 20 μM stock) using the Echo E5XX. FP was measured after a period of 12 hours using a Pherastar plate reader (BMG Labtech, Germany) exciting at 590 nm and measuring the amount of parallel and perpendicular light at 675 nm. The FP signal was subsequently normalized to the no-compound control (i.e., DMSO). Analysis and IC50 values were derived using Dotmatics (Dotmatics UK) software.

[2] = molecular target: GSPT1 (Homo sapiens (Human), UniProt P15170+Q96SW2); experiment: Immunofluorescence assay for GSPT1 degradation in CAL-Si cells; type: cell-based; settings: CAL-Si cells
Chain of GSPT1 (P15170 whole entry): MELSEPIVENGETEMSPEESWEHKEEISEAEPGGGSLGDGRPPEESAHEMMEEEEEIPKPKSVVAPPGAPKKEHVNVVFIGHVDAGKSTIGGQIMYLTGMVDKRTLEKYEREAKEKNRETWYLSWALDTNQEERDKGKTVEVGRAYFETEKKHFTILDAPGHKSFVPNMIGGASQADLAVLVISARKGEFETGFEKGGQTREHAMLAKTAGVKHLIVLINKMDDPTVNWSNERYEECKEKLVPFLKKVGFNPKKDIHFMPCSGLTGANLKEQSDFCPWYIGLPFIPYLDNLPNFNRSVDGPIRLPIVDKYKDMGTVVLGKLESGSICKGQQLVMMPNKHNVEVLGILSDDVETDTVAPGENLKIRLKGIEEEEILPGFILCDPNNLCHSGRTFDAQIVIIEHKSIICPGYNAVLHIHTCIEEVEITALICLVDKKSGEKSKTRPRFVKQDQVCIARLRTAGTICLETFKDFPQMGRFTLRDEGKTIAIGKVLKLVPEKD
Chain of GSPT1 (Q96SW2 whole entry): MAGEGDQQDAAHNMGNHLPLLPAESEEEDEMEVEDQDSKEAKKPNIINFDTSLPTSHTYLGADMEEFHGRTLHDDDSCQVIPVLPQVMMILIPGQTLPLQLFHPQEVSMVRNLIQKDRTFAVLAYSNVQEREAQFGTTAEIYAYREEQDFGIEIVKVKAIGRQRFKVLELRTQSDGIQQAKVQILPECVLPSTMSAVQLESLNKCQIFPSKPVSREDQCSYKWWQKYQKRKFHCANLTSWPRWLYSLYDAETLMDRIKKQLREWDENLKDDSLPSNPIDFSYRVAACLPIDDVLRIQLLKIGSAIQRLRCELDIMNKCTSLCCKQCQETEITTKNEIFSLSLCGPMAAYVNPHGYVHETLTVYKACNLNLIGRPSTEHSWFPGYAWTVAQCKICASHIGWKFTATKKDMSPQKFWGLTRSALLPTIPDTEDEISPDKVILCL
Chain of GSPT1 (Q16531 whole entry partner): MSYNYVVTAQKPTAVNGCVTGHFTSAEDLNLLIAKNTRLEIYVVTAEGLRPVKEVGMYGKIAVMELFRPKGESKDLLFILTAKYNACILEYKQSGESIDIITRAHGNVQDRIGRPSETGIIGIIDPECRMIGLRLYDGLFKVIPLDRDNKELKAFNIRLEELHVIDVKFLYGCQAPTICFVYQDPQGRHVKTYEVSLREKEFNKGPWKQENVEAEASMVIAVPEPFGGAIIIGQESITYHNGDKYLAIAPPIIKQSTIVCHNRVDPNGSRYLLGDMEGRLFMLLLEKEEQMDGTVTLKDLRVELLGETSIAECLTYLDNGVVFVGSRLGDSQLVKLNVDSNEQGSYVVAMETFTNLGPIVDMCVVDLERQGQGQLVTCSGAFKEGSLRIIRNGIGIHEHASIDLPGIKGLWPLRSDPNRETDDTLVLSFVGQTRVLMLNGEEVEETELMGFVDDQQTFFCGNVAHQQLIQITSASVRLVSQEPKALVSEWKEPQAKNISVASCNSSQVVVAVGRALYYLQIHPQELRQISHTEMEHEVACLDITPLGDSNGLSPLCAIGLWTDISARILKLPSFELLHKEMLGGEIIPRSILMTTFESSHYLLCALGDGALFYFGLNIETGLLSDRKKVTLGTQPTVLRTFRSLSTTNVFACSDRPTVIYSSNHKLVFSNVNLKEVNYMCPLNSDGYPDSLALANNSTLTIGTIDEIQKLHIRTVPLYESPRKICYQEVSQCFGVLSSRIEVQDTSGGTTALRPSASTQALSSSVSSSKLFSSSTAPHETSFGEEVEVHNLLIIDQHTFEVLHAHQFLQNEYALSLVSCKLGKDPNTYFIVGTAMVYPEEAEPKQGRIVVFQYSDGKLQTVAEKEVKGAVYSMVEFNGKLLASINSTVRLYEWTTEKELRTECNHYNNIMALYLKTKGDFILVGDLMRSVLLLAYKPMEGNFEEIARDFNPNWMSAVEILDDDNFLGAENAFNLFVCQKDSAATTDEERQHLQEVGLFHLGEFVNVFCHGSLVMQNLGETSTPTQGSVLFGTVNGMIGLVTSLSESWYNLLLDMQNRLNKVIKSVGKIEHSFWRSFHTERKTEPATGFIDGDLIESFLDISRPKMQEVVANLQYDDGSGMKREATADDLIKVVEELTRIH
Description: The compounds were tested in an immunofluorescence assay for their activity to bind to degrade GSPT1. CAL-Si cells were purchased from DSMZ (cat. Number ACC302), sub-cultured in 90% Dulbecco's MEM (4.5 g/L glucose, Gibco 11965)+10% heat inactivated FBS (BioConcept, 2-01F136I) and incubated at 37° C., 5% CO2. For the assay, imaging microtiterplate Cell Carrier 96 Ultra (Perkin Elmer 6055302) were pre-coated with Fibronectin (Sigma F085, 30 μl at 0.2 μg/ml) in PBS (100 μl, Gibco 14190) for 45 min at room temperature, rinsed with PBS and CAL-Si cells (30K cells/well) were plated and let to adhere overnight. Cells were treated with compounds typically using a serial dilution ranging from 30 μM to 0.1 nM for 6 hours. Compounds were stored at 10 mM DMSO stocks. Vehicle (DMSO), positive (CC-885, 10 μM) and rescue controls (positive control plus 0.2 μM bortezomib) were also included at this stage. Cells were subsequently rinsed with PBS and fixed in 10% Formalin solution (50 μl, Sigma HT5011)) for 20 mins at room temperature. Following three consecutive PBS washes (100 μl), cells were permeabilized in 0.1% Triton X-100 in PBS (Sigma 93443, 50 μl) for 15 mins at room temperature. Following three further PBS washes, 50 μl blocking buffer (1% BSA, Sigma A4503, in PBS) was added for 45 min for signal-to-noise reduction.
Primary antibody (human GSPT1, Sigma HPA052488) was diluted in blocking buffer (dil.1/300, 35 μl/well) and incubated with the cells overnight at 4° C. After three PBS washes, Alexa-fluor 488 coupled secondary antibodies (Invitrogen, A32731, dil.1/1000), Alexa-fluor 647-Phalloïdin (Invitrogen, A22287, dil.1/200) and DAPI (Thermo, #62248, dil.1/1000) were diluted in blocking buffer and incubated with the samples for 2 hours at room temperature. After three final PBS washes, samples were conserved in 100 μl PBS in the dark, until measurement. Image acquisition was performed on the Operetta High-Content Imager (Perkin-Elmer). Fluorescence intensity of Alexa-Fluor 488 (GSPT1), Alexa-Fluor 647 (Actin) and DAPI (Nucleus) were measured. For the determination of GSPT1 DC50 values, a custom algorithm implemented in the PerkinElmer image analysis software Harmony-Acapella® was developed. After user-defined setting of adjustment parameters, the analysis was run identically without human intervention for all image fields. DAPI staining of the nuclei was used to determine the location of cells using standard nuclei detection modules. Segmentation artifacts were removed by threshold-based filters for area, roundness and intensity. The outline of the cells was determined analogously from the sum of the normalized, smoothed DAPI and Actin channel, starting from each nucleus. The Alexa-Fluor 488 (GSPT1) signal intensity in each cell was finally measured, in order to obtain a Mean intensity per cell. GSPT1 degradation (DC50) was calculated after normalization to controls and data import in CDD vault Database, using non-linear regression.

[3] = cereblon binding, bound, read-out: IC50 value
[4] = wild-type CRBN 80.0 nM, probe 5 nM, FP measured after 12 hours, read-out: rFP IC50
[5] = compounds with code A, read-out: DC50 value code
[6] = treated 6 hours, read-out: Code, activity for GSPT1 degradation (DC50)

Chain of Full length wild-type cereblon CRBN (Q96SW2 whole entry): as the sequence (Q96SW2 whole entry) above

Row | SMILES | IC50 [1, 3] [nM] | IC50 [1, 4] [nM] | DC50 [2, 5] [nM] | DC50 [2, 6] [nM]
1 | COc1cc(COC(=O)Nc2ccc(-c3ccccn3)cc2)cc2c1CN(C1CCC(=O)NC1=O)C2=O (stereo not drawn) [Compound 42, (2-(2,6-dioxopiperidin-3-yl)-7-methoxy-3-oxoisoindolin-5-yl)methyl (4-(pyridin-2-yl)phenyl)carbamate] | < 600 | 600 to 1200 | < 30 | < 30
2 | O=C1CCC(N2Cc3c(F)cc(COC(=O)Nc4cc(Cl)cc(Cl)c4)cc3C2=O)C(=O)N1 (stereo not drawn) [Compound 28, (2-(2,6-dioxopiperidin-3-yl)-7-fluoro-3-oxoisoindolin-5-yl)methyl(3,5-dichlorophenyl)carbamate] |  | > 1900 |  | 30 to 300
3 | O=C1CCC(N2Cc3c(F)cc(COC(=O)Nc4cccc(OC5CC5)c4)cc3C2=O)C(=O)N1 (stereo not drawn) [Compound 21, (2-(2,6-dioxopiperidin-3-yl)-7-fluoro-3-oxoisoindolin-5-yl)methyl (3-cyclopropoxyphenyl)carbamate] | < 600 | 1200 to 1900 | < 30 | < 30
4 | O=C1CCC(N2Cc3c(F)cc(COC(=O)Nc4cc(F)cc(OC(F)(F)F)c4)cc3C2=O)C(=O)N1 (stereo not drawn) [Compound 12, (2-(2,6-dioxopiperidin-3-yl)-7-fluoro-3-oxoisoindolin-5-yl)methyl(3-fluoro-5-(trifluoromethoxy)phenyl)carbamate] |  | > 1900 |  | 30 to 300
5 | O=C1CCC(N2Cc3c(F)cc(COC(=O)Nc4cc(Cl)cc(OC(F)F)c4)cc3C2=O)C(=O)N1 (stereo not drawn) [Compound 34, (2-(2,6-dioxopiperidin-3-yl)-7-fluoro-3-oxoisoindolin-5-yl)methyl(3-chloro-5-(difluoromethoxy)phenyl)carbamate] |  | > 1900 |  | 30 to 300
6 | O=C1CCC(N2Cc3c(F)cc(COC(=O)Nc4ccc(-c5ccccc5F)nc4)cc3C2=O)C(=O)N1 (stereo not drawn) [Compound 18, (2-(2,6-dioxopiperidin-3-yl)-7-fluoro-3-oxoisoindolin-5-yl)methyl(6-(2-fluorophenyl)pyridin-3-yl)carbamate] | < 600 | 1200 to 1900 | < 30 | < 30
7 | COc1cc(COC(=O)Nc2ccc(-c3ccccc3C)nc2)cc2c1CN(C1CCC(=O)NC1=O)C2=O (stereo not drawn) [Compound 60, (2-(2,6-dioxopiperidin-3-yl)-7-methoxy-3-oxoisoindolin-5-yl)methyl (6-(o-tolyl)pyridin-3-yl)carbamate] | < 600 | ≤ 600 | < 30 | < 30
8 | Cc1ccc(NC(=O)OCc2cc(C#N)c3c(c2)C(=O)N(C2CCC(=O)NC2=O)C3)cc1Cl (stereo not drawn) [Compound 2, (7-cyano-2-(2,6-dioxopiperidin-3-yl)-3-oxoisoindolin-5-yl)methyl (3-chloro-4-methylphenyl)carbamate] |  | > 1900 |  | 30 to 300
9 | COc1cc(COC(=O)Nc2cccc(C(C)(C)C)c2)cc2c1CN(C1CCC(=O)NC1=O)C2=O (stereo not drawn) [Compound 54, (2-(2,6-dioxopiperidin-3-yl)-7-methoxy-3-oxoisoindolin-5-yl)methyl (3-(tert-butyl)phenyl)carbamate] | < 600 | ≤ 600 | < 30 | < 30
10 | COc1cc(COC(=O)Nc2ccc(-c3ccccc3)nc2)cc2c1CN(C1CCC(=O)NC1=O)C2=O (stereo not drawn) [Compound 45, (2-(2,6-dioxopiperidin-3-yl)-7-methoxy-3-oxoisoindolin-5-yl)methyl(6-phenylpyridin-3-yl)carbamate] | < 600 | 600 to 1200 | < 30 | < 30
11 | CC(C)(C)c1cccc(NC(=O)OCc2cc(F)c3c(c2)C(=O)N(C2CCC(=O)NC2=O)C3)c1 (stereo not drawn) [Compound 25, (2-(2,6-dioxopiperidin-3-yl)-7-fluoro-3-oxoisoindolin-5-yl)methyl (3-(tert-butyl)phenyl)carbamate] |  | > 1900 | < 30 | < 30
12 | COc1cc(COC(=O)Nc2ccc(C(C)(C)C)cc2)cc2c1CN(C1CCC(=O)NC1=O)C2=O (stereo not drawn) [Compound 43, (2-(2,6-dioxopiperidin-3-yl)-7-methoxy-3-oxoisoindolin-5-yl)methyl (4-(tert-butyl)phenyl)carbamate] | < 600 | 600 to 1200 | < 30 | < 30
13 | CC1(c2ccc(NC(=O)OCc3cc(F)c4c(c3)C(=O)N(C3CCC(=O)NC3=O)C4)cc2)CC1 (stereo not drawn) [Compound 13, (2-(2,6-dioxopiperidin-3-yl)-7-fluoro-3-oxoisoindolin-5-yl)methyl (4-(1-methylcyclopropyl)phenyl)carbamate] |  | > 1900 |  | 30 to 300
14 | COc1cc(COC(=O)Nc2cccc(OC3CC3)c2)cc2c1CN(C1CCC(=O)NC1=O)C2=O (stereo not drawn) [Compound 58, (2-(2,6-dioxopiperidin-3-yl)-7-methoxy-3-oxoisoindolin-5-yl)methyl (3-cyclopropoxyphenyl)carbamate] | < 600 | ≤ 600 |  | > 300
15 | COc1cc(COC(=O)Nc2cc(C)cc(C)c2)cc2c1CN(C1CCC(=O)NC1=O)C2=O (stereo not drawn) [Compound 52, (2-(2,6-dioxopiperidin-3-yl)-7-methoxy-3-oxoisoindolin-5-yl)methyl (3,5-dimethylphenyl)carbamate] | < 600 | ≤ 600 |  | 30 to 300
16 | CC1CCCCN1c1ccc(NC(=O)OCc2cc(F)c3c(c2)C(=O)N(C2CCC(=O)NC2=O)C3)cn1 (stereo not drawn) [Compound 16, (2-(2,6-dioxopiperidin-3-yl)-7-fluoro-3-oxoisoindolin-5-yl)methyl (6-(2-methylpiperidin-1-yl)pyridin-3-yl)carbamate] | < 600 | 600 to 1200 | < 30 | < 30
17 | COc1cc(COC(=O)Nc2cc(Cl)cc(OC(F)F)c2)cc2c1CN(C1CCC(=O)NC1=O)C2=O (stereo not drawn) [Compound 49, (2-(2,6-dioxopiperidin-3-yl)-7-methoxy-3-oxoisoindolin-5-yl)methyl (3-chloro-5-(difluoromethoxy)phenyl)carbamate] | < 600 | 600 to 1200 | < 30 | < 30
18 | O=C1CCC(N2Cc3c(F)cc(COC(=O)Nc4ccc(F)c(OC(F)F)c4)cc3C2=O)C(=O)N1 (stereo not drawn) [Compound 7, (2-(2,6-dioxopiperidin-3-yl)-7-fluoro-3-oxoisoindolin-5-yl)methyl(3-(difluoromethoxy)-4-fluorophenyl)carbamate] | < 600 | 1200 to 1900 |  | 30 to 300
19 | Cc1ccc(NC(=O)OCc2cc(Cl)c3c(c2)C(=O)N(C2CCC(=O)NC2=O)C3)cc1Cl (stereo not drawn) [Compound 4, (7-chloro-2-(2,6-dioxopiperidin-3-yl)-3-oxoisoindolin-5-yl)methyl (3-chloro-4-methylphenyl)carbamate] |  | > 1900 |  | 30 to 300
